Measured values published in US20050113413A1, “Naphthalene-1,5-disulfonic acid salts of a substituted 4-amino-1-(pyridylmethyl)piperidine compound” (priority 2003, published 2005).

Tests used:
[1] = biological target: T1, hM3 muscarinic receptor subtype (Homo sapiens, UniProt P20309); assay: Radioligand binding assay ([3H]NMS displacement), hM3 relative to hM2; conditions: ratio of Ki values
T1 construct: expressed in transfected cells; membranes prepared
Protocol: CHO (Chinese hamster ovary) cell lines stabilely expressing cloned human hM1, hM2, hM3 and hM4 muscarinic receptor subtypes, respectively, were grown to near confluency in medium consisting of HAM's F-12 supplemented with 10% FBS (Fetal Bovine Serum) and 250 μg/mL Geneticin. The cells were grown in a 5% CO2, 37° C. incubator and lifted with dPBS+2 mM EDTA. Cells were collected by 5 minute centrifugation at 650×g, and cell pellets were either stored frozen at −80° C. or membranes were prepared immediately. For membrane preparation, cell pellets were resuspended in lysis buffer and homogenized with a Polytron PT-2100 tissue disrupter (Kinematica AG; 20 seconds×2 bursts). Crude membranes were centrifuged at 40,000×g for 15 minutes at 4° C. […] Protein concentration of the membrane suspension was determined by the method of Lowry, O. et al., (1951) Journal of Biochemistry: 193, 265. […]
Radioligand binding assays were performed in 96-well microtiter plates in a total assay volume of 100 μL. […] Filter plates were rinsed three times with wash buffer (10 mM HEPES) to remove unbound radioactivity. […] The plates were then counted in a PerkinElmer Topcount liquid scintillation counter (PerkinElmer Inc., Wellesley, Mass.). Binding data were analyzed by nonlinear regression analysis with the GraphPad Prism Software package (GraphPad Software, Inc., San Diego, Calif.) using the one-site competition model. […]

[2] = Chemical stability of salt forms (change in purity by HPLC upon storage); format: physicochemical; conditions: 40° C. and 75% relative humidity, 7 days, HPLC Method D
Protocol: The chemical stability of each salt form was evaluated by determining the change in purity of the sample upon storage of the salt form at 40° C.
Prior to storage, each salt form was analyzed by HPLC (Method D) to determine sample purity and in particular, to determine the amount of the following impurities present in the sample: • A. 3-[4-{N-[7-(3-(S)-1-Carbamoyl-1,1-diphenylmethyl)pyrrolidin-1-yl)hept-1-yl]-N-(isopropyl)amino}piperidin-1-ylmethyl]-4-methoxy-1-methylpyridinium Salt (Impurity A); • B. 4-{N-[7-(3-(S)-1-Carbamoyl-1,1-diphenylmethyl)pyrrolidin-1-yl)hept-1-yl]-N-(isopropyl)amino}-1-(4-oxo-1,4-dihydropyrid-3-ylmethyl)piperidine (Impurity B).
Approximately 50-100 mg of the salt form was then placed in two heat sealed low density polyethylene bags. The bags were then placed into a stability chamber that was previously set at 40° C. and 75% relative humidity. After 7 days, the bags were removed and the contents were analyzed by HPLC.

T1 sequence (P20309 whole entry): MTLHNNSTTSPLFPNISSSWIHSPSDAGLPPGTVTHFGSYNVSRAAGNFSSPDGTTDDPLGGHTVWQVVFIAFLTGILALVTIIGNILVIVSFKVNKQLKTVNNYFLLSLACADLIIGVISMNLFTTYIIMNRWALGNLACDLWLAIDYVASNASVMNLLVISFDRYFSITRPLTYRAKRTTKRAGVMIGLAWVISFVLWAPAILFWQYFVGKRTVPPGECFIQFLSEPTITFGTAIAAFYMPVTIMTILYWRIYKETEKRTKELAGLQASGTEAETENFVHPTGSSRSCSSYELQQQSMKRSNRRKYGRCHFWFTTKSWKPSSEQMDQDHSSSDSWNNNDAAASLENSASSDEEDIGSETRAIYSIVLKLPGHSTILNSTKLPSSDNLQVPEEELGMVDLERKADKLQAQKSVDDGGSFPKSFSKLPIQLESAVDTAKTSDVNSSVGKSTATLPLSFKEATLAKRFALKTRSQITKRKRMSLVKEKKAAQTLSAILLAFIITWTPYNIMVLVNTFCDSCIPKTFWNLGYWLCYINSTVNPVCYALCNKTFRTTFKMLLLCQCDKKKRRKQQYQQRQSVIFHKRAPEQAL

## COc1ccncc1CN1CCC(N(CCCCCCCN2CC[C@@H](C(C(N)=O)(c3ccccc3)c3ccccc3)C2)C(C)C)CC1 [Example 6]
[1]
  hM3/hM2 ratio: greater than 40
[2]
  % Change in Impurity A: <0.1%
  % Change in Impurity B: <0.1%
[2]; heat sealed polyethylene bags
  % Change in Purity of Salt: 1.2%
